Read-outs that look alike come from different tables or passages of the source.
Columns and labels:
PANC-1 = assay: Inhibition of cells growth by colorimetric (SRB) assay, PANC-1
How it was run: (§1)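 Human tumour cells in RPMI 1640 with 10% FBS were seeded at 5×10^3 cells/well, allowed to attach for 18 h, then exposed to samples at 10 to 10^−8 μg/ml for 48 h. Growth was measured by SRB staining after TCA fixation, with absorbance read at 490 nm in triplicate wells.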

IGROV-ET = assay: Inhibition of cells growth by colorimetric (SRB) assay, IGROV-ET
How it was run: as §1

IGROV-1 = assay: Inhibition of cells growth by colorimetric (SRB) assay, IGROV-1
How it was run: as §1

[1] = Inhibition of cells growth by colorimetric (SRB) assay, HMEC1; details: human, HMEC1 cells, LC50 H-MEC-1, SRB assay, 48 hours exposure
HMEC1 = assay: as above; details: for GI50: Homo sapiens, HMEC-1, 48 h, read-out: GI50 H-MEC-1, SRB assay, 48 hours exposure; for TGI H-MEC-1: SRB assay, 48 hours exposure, in M (unit assumed)
K-562 = assay: Inhibition of cells growth by colorimetric (SRB) assay, K-562
How it was run: as §1

LoVo = assay: Inhibition of cells growth by colorimetric (SRB) assay, LoVo
How it was run: as §1

SK-MEL-28 = assay: Inhibition of cells growth by colorimetric (SRB) assay, SK-MEL-28
How it was run: as §1

SK-BR-3 = assay: Inhibition of cells growth by colorimetric (SRB) assay, SK-BR-3
How it was run: as §1

HT-29 = assay: Inhibition of cells growth by colorimetric (SRB) assay, HT-29; details: for GI50 / CC50: Homo sapiens, HT-29, 48 h; for TGI HT-29 / HT-29 TGI: SRB assay, 48 hours exposure
How it was run: as §1

A-549 = assay: Inhibition of cells growth by colorimetric (SRB) assay, A-549; details: for GI50 / CC50: Homo sapiens, A549, 48 h; for GI50: read-out: GI50 A-549, SRB assay, 48 hours exposure; for TGI A-549 / A-549 TGI: SRB assay, 48 hours exposure
How it was run: as §1

LoVo-Dox = assay: Inhibition of cells growth by colorimetric (SRB) assay, LoVo-Dox
How it was run: as §1

LNCaP = assay: Inhibition of cells growth by colorimetric (SRB) assay, LNCaP
How it was run: as §1

DU-145 = assay: Inhibition of cells growth by colorimetric (SRB) assay, DU-145
How it was run: as §1

[2] = read-out: GI50 HT-29, SRB assay, 48 hours exposure
[3] = read-out: LC50 HT-29, SRB assay, 48 hours exposure
[4] = read-out: LC50 A-549, SRB assay, 48 hours exposure
[5] = read-out: HT-29 GI50, SRB assay, 48 hours exposure
[6] = read-out: HT-29 LC50, SRB assay, 48 hours exposure
[7] = read-out: A-549 LC50, SRB assay, 48 hours exposure

COc1nccc(-c2c3c(N)ccnc3n3c(N)nccc23)n1 [Compound 88]
GI50 (PANC-1; Homo sapiens, PANC-1, 48 h, read-out: GI50 PANC-1, SRB assay, 48 hours exposure): 5.85 µM
CC50 (PANC-1; Homo sapiens, PANC-1, 48 h, read-out: LC50 PANC-1, SRB assay, 48 hours exposure): 18.7 µM
TGI PANC-1 (PANC-1; SRB assay, 48 hours exposure): 1.87E−05
GI50 (IGROV-ET; Homo sapiens, 48 h, read-out: GI50 IGROV-ET, SRB assay, 48 hours exposure): 1.4 µM
CC50 (IGROV-ET; Homo sapiens, 48 h, read-out: LC50 IGROV-ET, SRB assay, 48 hours exposure): 18.7 µM
TGI IGROV-ET (IGROV-ET; SRB assay, 48 hours exposure): 6.74E−06
GI50 (IGROV-1; Homo sapiens, IGROV-1, 48 h, read-out: GI50 IGROV, SRB assay, 48 hours exposure): 3.23 µM
CC50 (IGROV-1; Homo sapiens, IGROV-1, 48 h, read-out: LC50 IGROV, SRB assay, 48 hours exposure): 18.7 µM
TGI IGROV (IGROV-1; SRB assay, 48 hours exposure): 9.58E−06
CC50 at 48 h [1]: 18.7 µM
GI50 (HMEC1): 0.99 µM
TGI H-MEC-1 (HMEC1): 9.71E−06
GI50 (K-562; Homo sapiens, K562, 48 h, read-out: GI50 K-562, SRB assay, 48 hours exposure): 6.09 µM
CC50 (K-562; Homo sapiens, K562, 48 h, read-out: LC50 K-562, SRB assay, 48 hours exposure): 18.7 µM
TGI K-562 (K-562; SRB assay, 48 hours exposure): 1.87E−05
GI50 (LoVo; Homo sapiens, LoVo, 48 h, read-out: GI50 LOVO, SRB assay, 48 hours exposure): 1.34 µM
CC50 (LoVo; Homo sapiens, LoVo, 48 h, read-out: LC50 LOVO, SRB assay, 48 hours exposure): 12.9 µM
TGI LOVO (LoVo; SRB assay, 48 hours exposure): 4.37E−06
GI50 (SK-MEL-28; Homo sapiens, SK-MEL-28, 48 h, read-out: GI50 MEL-28, SRB assay, 48 hours exposure): 1.43 µM
CC50 (SK-MEL-28; Homo sapiens, SK-MEL-28, 48 h, read-out: LC50 MEL-28, SRB assay, 48 hours exposure): 11.2 µM
TGI MEL-28 (SK-MEL-28; SRB assay, 48 hours exposure): 4.17E−06
GI50 (SK-BR-3; Homo sapiens, SK-BR-3, 48 h, read-out: GI50 SK-BR-3, SRB assay, 48 hours exposure): 0.562 µM
CC50 (SK-BR-3; Homo sapiens, SK-BR-3, 48 h, read-out: LC50 SK-BR-3, SRB assay, 48 hours exposure): 18.7 µM
TGI SK-BR-3 (SK-BR-3; SRB assay, 48 hours exposure): 1.36E−06
GI50 (HT-29; [2]): 1.03 µM
CC50 (HT-29; [3]): 18.7 µM
TGI HT-29 (HT-29): 1.87E−05
GI50 (A-549): 1.03 µM
CC50 (A-549; [4]): 18.7 µM
TGI A-549 (A-549): 6.95E−06
GI50 (LoVo-Dox; Homo sapiens, 48 h, read-out: GI50 LOVO-DOX, SRB assay, 48 hours exposure): 1.06 µM
CC50 (LoVo-Dox; Homo sapiens, 48 h, read-out: LC50 LOVO-DOX, SRB assay, 48 hours exposure): 15.1 µM
TGI LOVO-DOX (LoVo-Dox; SRB assay, 48 hours exposure): 3.87E−06
GI50 (LNCaP; Homo sapiens, LNCaP, 48 h, read-out: GI50 LN-caP, SRB assay, 48 hours exposure): 0.415 µM
CC50 (LNCaP; Homo sapiens, LNCaP, 48 h, read-out: LC50 LN-caP, SRB assay, 48 hours exposure): 1.59 µM
TGI LN-caP (LNCaP; SRB assay, 48 hours exposure): 8.13E−07
GI50 (DU-145; Homo sapiens, DU-145, 48 h, read-out: GI50 DU-145, SRB assay, 48 hours exposure): 0.902 µM
CC50 (DU-145; Homo sapiens, DU-145, 48 h, read-out: LC50 DU-145, SRB assay, 48 hours exposure): 18.7 µM
TGI DU-145 (DU-145; SRB assay, 48 hours exposure): 1.87E−05

CSc1nccc(-c2c3cc(F)c(Cl)nc3n3c(SC)nccc23)n1 [Compound 48]
CC50 at 48 h [1]: 25.5 µM
GI50 (HMEC1): 25.5 µM
TGI H-MEC-1 (HMEC1): 2.55E−05
GI50 (HT-29; [2]): 25.5 µM
CC50 (HT-29; [3]): 25.5 µM
TGI HT-29 (HT-29): 2.55E−05
GI50 (A-549): 25.5 µM
CC50 (A-549; [4]): 25.5 µM
TGI A-549 (A-549): 2.55E−05

CSc1nccc(-c2c3cc(Cl)cnc3n3c(SC)nccc23)n1 [Compound 47]
CC50 at 48 h [1]: 26.7 µM
GI50 (HMEC1): 26.7 µM
TGI H-MEC-1 (HMEC1): 2.67E−05
GI50 (HT-29; [2]): 20.4 µM
CC50 (HT-29; [3]): 26.7 µM
TGI HT-29 (HT-29): 2.67E−05
GI50 (A-549): 17.2 µM
CC50 (A-549; [4]): 26.7 µM
TGI A-549 (A-549): 2.67E−05

COc1cccc(-c2c3cccnc3n3c(SC)nccc23)c1 [Compound 57]
CC50 at 48 h [1]: 31.1 µM
GI50 (HMEC1): 31.1 µM
TGI H-MEC-1 (HMEC1): 3.11E−05
GI50 (HT-29; [5]): 31.1 µM
CC50 (HT-29; [6]): 31.1 µM
HT-29 TGI (HT-29): 3.11E−05
CC50 (A-549; [7]): 31.1 µM
GI50 (A-549): 22.5 µM
A-549 TGI (A-549): 3.11E−05

CSc1nccc2c(-c3ccccc3)c3cccnc3n12 [Compound 58]
CC50 at 48 h [1]: ≥ 34.3 µM
GI50 (HMEC1): ≥ 34.3 µM
TGI H-MEC-1 (HMEC1): 3.43E−05
GI50 (HT-29; [5]): ≥ 34.3 µM
CC50 (HT-29; [6]): ≥ 34.3 µM
HT-29 TGI (HT-29): 3.43E−05
CC50 (A-549; [7]): ≥ 34.3 µM
GI50 (A-549): ≥ 34.3 µM
A-549 TGI (A-549): 3.43E−05

Source: US7772241B2, “Variolin derivatives and their use as antitumor agents” (Pharma Mar S.A., priority 2001, dated 2010)
